Experimental findings from US11091815B2, “Integrated methods for treating lignocellulosic material” (VIRDIA, LLC, priority 2015, dated 2021) are described below.

Where two headings read alike, the source gives them in different places.

This series can be described thus: Partition coefficient in a two phase system of water and MEK. It counts as physicochemical. The procedure:
Water and methylethyl ketone (MEK) were shaken for several minutes to allow saturation of each phase. The phases were separated. An excess amount of fumaric acid was stirred at 40° C. in each phase for 5 hours in a closed container. A sample of the solution was diluted with water and filtered. The concentration of fumaric acid was determined by HPLC by injecting 1-20 μL onto a Bio-Rad Aminex HPX-87H 7.2 mm column, using 0.003 M H2SO4 as eluent, flow rate 0.6 mL/min, temperature 65° C., and an RI detector. The saturated solution was held in a thermostated bath at 25° C., 10° C., 4° C. and 0° C. and allowed to equilibrate at each temperature. A sample of each solution was taken, diluted with water and injected onto the HPLC to determine fumaric acid concentration. Similarly, excess amounts of fumaric acid and Ca(OH)2 were shaken with each phase and the concentration of fumaric acid determined by HPLC in a diluted, filtered sample.
An excess amount of fumaric acid was shaken overnight at 4° C. in a biphasic system of water and MEK. The fumaric acid concentration in each phase was determined by HPLC as described in Example 4. Similarly, excess amounts of both fumaric acid and calcium hydroxide were equilibrated with a biphasic system of water and MEK. The partition coefficient was calculated as:
[formula] K was determined to be 8.6 for fumaric acid and 0.5 for calcium fumarate.

For the molecule `O=C([O-])/C=C/C(=O)[O-].[Ca+2]` [calcium fumarate], the “partition coefficient K” value (biphasic system of water and MEK, excess solid shaken overnight at 4° C., concentration in each phase by HPLC, calcium fumarate: excess fumaric acid and calcium hydroxide) came to 0.5.
Regarding `O=C(O)/C=C/C(=O)O` [fumaric acid], the “partition coefficient K” value stood at 8.6.
